Laboratory results reported in the supplement of paper PMC10307832.

Key:
Assay in all cases: relative viability (nuclei count vs DMSO), 5 days (fraction); higher = more cells survive
[1] = test system: A549
Procedure, shortened: (§1)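 Relative viability equals treated-well nuclei counts divided by vehicle-well nuclei counts. Counts came from 4× images of lung cancer cell lines grown in 1536-well plates for 5 days after pin-tool dosing on the day after seeding. Dosing used one drug alone or a fixed anchor-drug dose plus five library-drug doses (not always all listed) in √10 steps, and values are medians of duplicate plates.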

[2] = test system: A-427
Procedure, shortened: as §1

[3] = test system: NCI-H1299
Procedure, shortened: as §1

[4] = test system: EBC-1
Procedure, shortened: as §1

[5] = test system: HCC-44
Procedure, shortened: as §1

[6] = test system: SW 1573
Procedure, shortened: as §1

[7] = test system: NCI-H2023
Procedure, shortened: as §1

[8] = test system: NCI-H1650
Procedure, shortened: as §1

[9] = test system: Calu-6
Procedure, shortened: as §1

[10] = test system: NCI-H1703
Procedure, shortened: as §1

[11] = test system: RERF-LC-KJ
Procedure, shortened: as §1

[12] = test system: IA-LM
Procedure, shortened: as §1

[13] = test system: NCI-H1993
Procedure, shortened: as §1

For `COCC1(CO)C(=O)C2CCN1CC2` (centres undefined) [PRIMA-1MET] + CS(=O)(=O)N1CCN(Cc2cc3nc(-c4cccc5[nH]ncc45)nc(N4CCOCC4)c3s2)CC1 [Pictilisib] (partner 1 µM), the relative viability ([1]; first compound 0.2 µM) was 0.581, the relative viability ([1]; first compound 0.6325 µM) was 0.403 and the relative viability ([1]; first compound 2 µM) was 0.497. For the same compound, the relative viability ([1]; first compound 6.325 µM) was 0.543, the relative viability ([1]; first compound 20 µM) was 0.421 and the relative viability ([2]; first compound 0.2 µM) was 0.255. For the same compound, the relative viability ([2]; first compound 0.6325 µM) was 0.53, the relative viability ([2]; first compound 2 µM) was 0.528 and the relative viability ([2]; first compound 6.325 µM) was 0.378. For the same compound, the relative viability ([2]; first compound 20 µM) was 0.622, the relative viability ([3]; first compound 0.2 µM) was 0.956 and the relative viability ([3]; first compound 0.6325 µM) was 0.782. It also gave a relative viability ([3]; first compound 2 µM) of 0.345, a relative viability ([3]; first compound 6.325 µM) of 0.808 and a relative viability ([3]; first compound 20 µM) of 0.0251. It also gave a relative viability ([4]; first compound 0.2 µM) of 0.414, a relative viability ([4]; first compound 0.6325 µM) of 0.381 and a relative viability ([4]; first compound 2 µM) of 0.402. The relative viability ([4]; first compound 6.325 µM) was 0.434, the relative viability ([4]; first compound 20 µM) was 0.12 and the relative viability ([5]; first compound 0.2 µM) was 0.569. The relative viability ([5]; first compound 0.6325 µM) was 0.414, the relative viability ([5]; first compound 2 µM) was 0.426 and the relative viability ([5]; first compound 6.325 µM) was 0.651. For the same compound, the relative viability ([5]; first compound 20 µM) was 0.611, the relative viability ([6]; first compound 0.2 µM) was 0.463 and the relative viability ([6]; first compound 0.6325 µM) was 0.409. For the same compound, the relative viability ([6]; first compound 2 µM) was 0.45, the relative viability ([6]; first compound 6.325 µM) was 0.0446 and the relative viability ([6]; first compound 20 µM) was 0.0283. For the same compound, the relative viability ([7]; first compound 0.2 µM) was 0.205, the relative viability ([7]; first compound 0.6325 µM) was 0.196 and the relative viability ([7]; first compound 2 µM) was 0.222. It also gave a relative viability ([7]; first compound 6.325 µM) of 0.229, a relative viability ([7]; first compound 20 µM) of 0.221 and a relative viability ([8]; first compound 0.2 µM) of 0.618. The relative viability ([8]; first compound 0.6325 µM) was 0.483, the relative viability ([8]; first compound 2 µM) was 0.311 and the relative viability ([8]; first compound 6.325 µM) was 0.527. The relative viability ([8]; first compound 20 µM) was 0.209, the relative viability ([9]; first compound 0.2 µM) was 0.945 and the relative viability ([9]; first compound 0.6325 µM) was 0.873. The relative viability ([9]; first compound 2 µM) was 1.07, the relative viability ([9]; first compound 6.325 µM) was 0.917 and the relative viability ([9]; first compound 20 µM) was 0.563. The relative viability ([10]; first compound 0.2 µM) was 0.275, the relative viability ([10]; first compound 2 µM) was 0.255 and the relative viability ([10]; first compound 6.325 µM) was 0.293. For the same compound, the relative viability ([10]; first compound 20 µM) was 0.0333, the relative viability ([11]; first compound 0.2 µM) was 0.538 and the relative viability ([11]; first compound 0.6325 µM) was 0.595. It also gave a relative viability ([11]; first compound 2 µM) of 0.64, a relative viability ([11]; first compound 6.325 µM) of 0.623 and a relative viability ([11]; first compound 20 µM) of 0.624. It also gave a relative viability ([12]; first compound 0.2 µM) of 0.476, a relative viability ([12]; first compound 0.6325 µM) of 0.253 and a relative viability ([12]; first compound 2 µM) of 0.355. For the same compound, the relative viability ([12]; first compound 6.325 µM) was 0.404, the relative viability ([12]; first compound 20 µM) was 0.326 and the relative viability ([13]; first compound 0.2 µM) was 0.949. For the same compound, the relative viability ([13]; first compound 0.6325 µM) was 0.797, the relative viability ([13]; first compound 2 µM) was 0.732 and the relative viability ([13]; first compound 6.325 µM) was 0.873. For the same compound, the relative viability ([13]; first compound 20 µM) was 0.854.

With `COCC1(CO)C(=O)C2CCN1CC2` (centres undefined) [PRIMA-1MET] + C[C@@H](Oc1cc(-c2cnn(C3CCNCC3)c2)cnc1N)c1c(Cl)ccc(F)c1Cl [Crizotinib] (partner 1 µM) the relative viability ([1]; first compound 0.2 µM) was 0.961, the relative viability ([1]; first compound 0.6325 µM) was 0.577 and the relative viability ([1]; first compound 2 µM) was 0.813. For the same compound, the relative viability ([1]; first compound 6.325 µM) was 0.817, the relative viability ([1]; first compound 20 µM) was 0.746 and the relative viability ([2]; first compound 0.2 µM) was 0.935. The relative viability ([2]; first compound 0.6325 µM) was 0.721, the relative viability ([2]; first compound 2 µM) was 0.769 and the relative viability ([2]; first compound 6.325 µM) was 0.959. For the same compound, the relative viability ([2]; first compound 20 µM) was 0.822, the relative viability ([3]; first compound 0.2 µM) was 0.988 and the relative viability ([3]; first compound 0.6325 µM) was 0.728. The relative viability ([3]; first compound 2 µM) was 1, the relative viability ([3]; first compound 6.325 µM) was 0.978 and the relative viability ([3]; first compound 20 µM) was 0.955. It also gave a relative viability ([4]; first compound 0.2 µM) of 0.19, a relative viability ([4]; first compound 0.6325 µM) of 0.174 and a relative viability ([4]; first compound 2 µM) of 0.197. For the same compound, the relative viability ([4]; first compound 6.325 µM) was 0.192, the relative viability ([4]; first compound 20 µM) was 0.212 and the relative viability ([5]; first compound 0.2 µM) was 0.83. For the same compound, the relative viability ([5]; first compound 0.6325 µM) was 0.67, the relative viability ([5]; first compound 2 µM) was 0.867 and the relative viability ([5]; first compound 6.325 µM) was 0.86. For the same compound, the relative viability ([5]; first compound 20 µM) was 0.807, the relative viability ([6]; first compound 0.2 µM) was 0.935 and the relative viability ([6]; first compound 0.6325 µM) was 0.571. The relative viability ([6]; first compound 2 µM) was 0.843, the relative viability ([6]; first compound 6.325 µM) was 0.276 and the relative viability ([6]; first compound 20 µM) was 0.0264. The relative viability ([7]; first compound 0.2 µM) was 0.764, the relative viability ([7]; first compound 0.6325 µM) was 0.623 and the relative viability ([7]; first compound 2 µM) was 0.601. For the same compound, the relative viability ([7]; first compound 6.325 µM) was 0.694, the relative viability ([7]; first compound 20 µM) was 0.584 and the relative viability ([8]; first compound 0.2 µM) was 1.22. It also gave a relative viability ([8]; first compound 0.6325 µM) of 1.02, a relative viability ([8]; first compound 2 µM) of 1 and a relative viability ([8]; first compound 6.325 µM) of 0.992. It also gave a relative viability ([8]; first compound 20 µM) of 0.659, a relative viability ([9]; first compound 0.2 µM) of 0.795 and a relative viability ([9]; first compound 0.6325 µM) of 0.901. For the same compound, the relative viability ([9]; first compound 2 µM) was 0.825, the relative viability ([9]; first compound 6.325 µM) was 0.886 and the relative viability ([9]; first compound 20 µM) was 0.627. It also gave a relative viability ([10]; first compound 0.2 µM) of 0.749, a relative viability ([10]; first compound 0.6325 µM) of 0.861 and a relative viability ([10]; first compound 2 µM) of 0.784. For the same compound, the relative viability ([10]; first compound 6.325 µM) was 0.377, the relative viability ([10]; first compound 20 µM) was 0.0587 and the relative viability ([11]; first compound 0.2 µM) was 0.868. The relative viability ([11]; first compound 0.6325 µM) was 0.767, the relative viability ([11]; first compound 2 µM) was 0.86 and the relative viability ([11]; first compound 6.325 µM) was 0.85. It also gave a relative viability ([11]; first compound 20 µM) of 0.847, a relative viability ([12]; first compound 0.2 µM) of 0.856 and a relative viability ([12]; first compound 0.6325 µM) of 0.868. It also gave a relative viability ([12]; first compound 2 µM) of 0.955, a relative viability ([12]; first compound 6.325 µM) of 0.851 and a relative viability ([12]; first compound 20 µM) of 0.838. The relative viability ([13]; first compound 0.2 µM) was 1.14, the relative viability ([13]; first compound 0.6325 µM) was 0.892 and the relative viability ([13]; first compound 2 µM) was 0.738. The relative viability ([13]; first compound 6.325 µM) was 0.883 and the relative viability ([13]; first compound 20 µM) was 0.822.
